Data reported in patent publication US8394767B2, “Methods of treating cancer using the calcitonin-gene related peptide (“CGRP”) receptor antagonist CGRP8-37” (University of Rochester, priority 2008, dated 2013).
Each block holds one compound with its values, some of them ahead of it. No end group written: not given here.

Key:
[1] = test system: anti-CGRP antibody JH84; test: Fluorescent competition assay with FL-CGRP tracer on immobilized antibody; assay type: binding; details: JH84 bound to 96-well plate, 100 pM FL-CGRP as tracer
Method: FIG. 11 is a graph illustrating that FL-CGRP can be used for a competition assay to determine CGRP concentrations. Affinity-purified JH84 antibody (100 ng/well) was linked to wells in a 96-well plate, and incubated with 100 pM FL-CGRP and increasing concentrations of unlabeled CGRP. Unbound peptide was washed from well, and fluorescence detected in a Perkin Elmer plate reader.
FL-CGRP was then used to develop a fluorescent competition assay. Affinity-purified anti-CGRP antibody JH84 was bound to the wells of a 96-well plate and […] FL-CGRP was incubated as tracer with either unlabeled CGRP, the homologous neuropeptide adrenomedullin (AM), or the CGRP antagonist CGRP(8-37). […] Thus, the antagonist could not totally compete with FL-CGRP for binding to the antibodies.

[2] = test system: breast cancer lines (human MDA-MB-231 and MDA-MB-231 BR, mouse 4T1 and TG1); test: Growth of breast cancer lines constitutively expressing L2/EGFP (FACS-purified); assay type: cell-based; details: constitutive promoter
Text: To determine if the dominant-negative L2/EGFP fusion protein could inhibit CLR function in breast cancer cells, four breast cancer lines (human MDA-MB-231 and MDA-MB-231 BR lines and mouse 4T1 and TG1 lines) were transfected with L2/EGFP or GFP alone. MDA-MB231 and MDA-MB-231BR cells that constitutively express GFP were generated as previously described (Evans et al., “CGRP-RCP, a Novel Protein Required for Signal Transduction at Calcitonin Gene-Related Peptide and Adrenomedullin Receptors,” J Biol Chem 275(40):31438-43 (2000); Prado et al., “The Role of the CGRP-Receptor Component Protein (RCP) in Adrenomedullin Receptor Signal Transduction,” Peptides 22(11):1773-81 (2001); and Rosenblatt et al., “Endoproteolysis at Tetrabasic Amino Acid Sites in Procalcitonin Gene-Related Peptide by Pituitary Cell Lines” Peptides 18(4):567-76 (1997), which are hereby incorporated by reference in their entirety). However, when a constitutive promoter was used to express L2/EGFP in these tumor cells, pure fluorescent colonies could not be isolated because, it is believed, the constitutive expression of L2/EGFP was too effective at inhibiting tumor growth.

[3] = test system: CNS1 glioma cells; test: Growth of CNS1 glioma cells constitutively expressing L2/EGFP (FACS-purified); assay type: cell-based, rat; details: constitutive expression
Text: To examine the role of CLR in glioma proliferation, inhibition of CLR via expression of L2/EGFP was attempted. Although CNS1 cells that constitutively express GFP were generated using published techniques (Evans et al., “CGRP-RCP, A Novel Protein Required for Signal Transduction At Calcitonin Gene-Related Peptide and Adrenomedullin Receptors,” J Biol Chem 275(40):31438-43 (2000); Prado et al., “The Role of the CGRP-Receptor Component Protein (RCP) in Adrenomedullin Receptor Signal Transduction,” Peptides 22(11):1773-81 (2001); Rosenblatt et al., “Endoproteolysis At Tetrabasic Amino Acid Sites in Procalcitonin Gene-Related Peptide by Pituitary Cell Lines,” Peptides 18(4):567-76 (1997), which are hereby incorporated by reference in their entirety), upon transfection of the constitutively expressed L2/EGFP construct, pure fluorescent colonies could not be isolated.

[4] = molecular target: T1, CGRP receptor (Mus musculus, UniProt O35427); test: CGRP receptor signaling (cAMP) in NIH3T3 cells expressing L2/EGFP; assay type: cell-based; details: L2/EGFP expressed in NIH3T3 cells, which endogenously express CGRP receptors
T1 construct: NIH3T3 cells, which endogenously express CGRP receptors; endogenous in cells; host or cells: NIH3T3
Text: (§1) FIG. 7A is a schematic illustration showing that the second intracellular loop of CLR was cloned as a fusion protein with enhanced green fluorescent protein (EGFP). […] The immunoprecipitate was separated by SDS-PAGE and probed with an antibody directed against RCP. RCP co-immunoprecipitated with the L2/EGFP fusion protein (lanes 5, 6) indicating an interaction between RCP and the second intracellular loop of CLR.
(§2) A fusion protein was constructed containing the second intracellular loop (“L2” or elsewhere designated “cpd2”) of CLR and the enhanced green fluorescent protein (L2/EGFP) (FIG. 7A). RCP co-immunoprecipitated with the L2/EGFP fusion protein, indicating a direct interaction between the two proteins (FIG. 7B). […] This confirmed the belief that over-expression of L2/EGFP pulls most of the available RCP away from the CGRP receptor complex, and that the CLR/RAMP1 complex is unable to signal. Thus, the site of interaction between the second intracellular loop of CLR and RCP represents a novel control site for signaling at CLR, and represents a candidate for development of anti-proliferative drugs to combat tumor growth.

[5] = molecular target: T2, RCP (Mus musculus, UniProt O35427); test: Co-immunoprecipitation of RCP with L2/EGFP in NIH3T3 cells; assay type: binding; details: L2/EGFP transfected into NIH3T3 cells, GFP immunoprecipitation, probed with anti-RCP
T2 construct: endogenous in cells; host or cells: NIH3T3
Text: as §1, §2

[6] = molecular target: T3, FL-CGRP (Rattus norvegicus, UniProt P01256); test: Immunoprecipitation of FL-CGRP by anti-CGRP antibodies; assay type: binding; details: saturating unlabeled CGRP
T3 sequence (P01256 83-119 limits assumed): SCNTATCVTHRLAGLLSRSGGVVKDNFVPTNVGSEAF
Text: FIGS. 10A-B illustrate the immunoprecipitation of FL-CGRP using anti-CGRP antibodies JH84 and MU33. FIG. 10B schematically illustrates the binding sites of these antibodies.
To be useful for development of non-radioactive competition assays, which will be useful for quantifying CGRP in tissues and cells, the FL-label at lysine^24 cannot inhibit anti-CGRP antibody binding. […] The binding sites for JH84 and MU33 on CGRP are illustrated schematically in FIG. 10B.

[7] = test system: MDA-MB-231BR breast cancer cells; test: MDA-MB-231BR breast cancer cell growth assay (CyQuant Direct Proliferation Assay); assay type: cell-based, human; details: normoxic conditions, after 4 days in culture
Method: (§3) FIGS. 4A-B are graphs illustrating that CGRP is a potent stimulator of MDA-MB231BR breast cancer cell growth. MDA-MB231BR cells were seeded in 96-well plates, and grown for the indicated time in either normoxic (4A) or hypoxic (4B) conditions. Media was replaced every 24 hrs with fresh peptide-containing media. On each day, cell number was determined using the CyQuant Direct Proliferation Assay (Invitrogen).
A similar role for CGRP in the stimulation of breast cancer cell growth was observed using the MDA-MB-231BR breast cancer cell line. […] 81:39-48 (2007); Oxmann et al., “Endoglin Expression in Metastatic Breast Cancer Cells Enhances Their Invasive Phenotype,” Oncogene 27:3567-3575 (2008), each of which is herbey incorporated by reference in its entirety). In this assay, CGRP induced the MDA-MB-231BR breast cancer cells 6-fold over control after 4 days in culture under normoxic conditions (FIGS. 4A-B).

[8] = test system: CNS1 glioma cells; test: CNS1 glioma tumor cell proliferation assay (CyQuant Direct Proliferation Assay); assay type: cell-based, rat; details: for stimulation of glioma growth over control: hypoxic conditions
Method: as §3, with “3A-B” for “4A-B”, “CNS1 glioma” for “MDA-MB231BR breast cancer”, “CNS1” for “MDA-MB231BR”, “(3A)” for “(4A)”, “[…]” for “(4B)”
The rat glioma cell line CNS1 was used in a tumor cell proliferation assay. Both AM and CGRP were tested for their ability to stimulate glioma growth. […] More striking was the effect under hypoxic conditions, where CGRP stimulated glioma growth 72-fold over control after 4 days in culture and 10-fold after 5 days in culture (FIG. 3B).

[9] = test system: CGRP receptor; details: oocyte-CFTR assay, Luebke et al. 1996; cited from earlier work
[10] = test system: rodent receptors over human receptors; details: cited from earlier work
[11] = test system: CGRP receptors (CLR-cherry and RAMP1); test: FL-CGRP binding to COS1 cells transfected with CLR-cherry and RAMP1 (fluorescence microscopy)
Method: FIG. 12 is a panel of microscopy images illustrating that FL-CGRP specifically binds to cells expressing CLR and RAMP1. COS1 cells were transfected with CLR-cherry and RAMP1. 30 nM FL-CGRP was incubated with transfected cells for 30 minutes, and cells were washed 2× with PBS and visualized by phase-contrast microscopy (left panel), and fluorescent microscopy to identify cells expressing the CLR-cherry fusion protein (center panel) and cells that bound FL-CGRP (right panel).
COS1 cells were transfected with a fusion protein containing CLR-fused at its carboxyl terminus to the fluorescent protein cherry. CLR-cherry and RAMP1 were co-transfected into COS1 cells, and 48 hours post-transfection cells were incubated with FL-CGRP, and imaged using phase contrast microscopy (FIG. 12, left panel) as well as fluorescence microscopy for cherry (580 nm) (FIG. 12, center panel) and FL-CGRP (488 nm) (FIG. 12, right panel).

T1 sequence (O35427 whole entry): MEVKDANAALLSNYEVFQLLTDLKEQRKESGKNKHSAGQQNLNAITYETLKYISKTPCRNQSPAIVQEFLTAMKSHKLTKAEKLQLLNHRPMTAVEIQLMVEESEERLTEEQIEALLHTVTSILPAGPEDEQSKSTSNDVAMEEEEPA
T2 sequence (O35427 whole entry): as above

competition with FL-CGRP for binding to immobilized antibody [1]: partially competed
Compound: CGRP8-37: peptide CGRP antagonist consisting of residues 8-37 of SEQ ID NO: 2

competition with FL-CGRP for binding to immobilized antibody [1]: did not compete
Compound: AM: the homologous neuropeptide adrenomedullin

signaling at the CGRP receptor as measured by cAMP [4]: inhibited signaling at the CGRP receptor
co-immunoprecipitation with RCP [5]: co-immunoprecipitated
Compound: L2/EGFP: fusion protein of the second intracellular loop of CLR and enhanced green fluorescent protein; dominant-negative inhibitor of CLR signaling (LIVVAVFAEKQHLMWYYFLGWGFPLIPACIH; also: fusion protein with EGFP)
growth of pure populations of cells expressing the dominant-negative inhibitor [2]: would not grow
growth of pure populations of cells expressing the dominant-negative inhibitor [3]: would not grow

effect on immunoprecipitation of FL-CGRP by JH84 and MU33 [6]: blocked
competition with FL-CGRP for binding to immobilized antibody [1]: effectively competed
Compound: CGRP: 37 amino acid neuropeptide derived from calcitonin-related polypeptide alpha; agonist of the CGRP receptor
induction of MDA-MB-231BR breast cancer cells over control [7]: 6 fold
stimulation of glioma growth over control ([8]; after 4 days in culture): 72 fold
stimulation of glioma growth over control ([8]; after 5 days in culture): 10 fold
increase of CNS1 cell growth over control ([8]; normoxic conditions, after 5 days in culture): 11 fold

Compound: SEQ ID NO:9: antisense DNA oligonucleotide TGCTCACTGTGTAAGCCTTAAATCCATCAAG (DNA, backbone not given here)
CGRP receptor function [9]: inhibit CGRP receptor function

Compound: NCCCC[C@H](NC(=O)[C@@H](Cc1cc(Br)c(O)c(Br)c1)NC(=O)N1CCC(N2Cc3ccccc3NC2=O)CC1)C(=O)N1CCN(c2ccncc2)CC1 [BIB4096, N-((1R)-2-(((1S)-5-amino-1-((4-(pyridin-4-yl)piperazin-1-yl)carbonyl)pentyl)amino)-1-(3,5-dibromo-4-hydroxybenzyl)-2-oxoethyl)-4-(2-oxo-1,4-dihydroquinazolin-3(2H)-yl)piperidine-1-carboxamide]
lower affinity for rodent receptors over human receptors [10]: 100-1000 ×

Compound: FL-CGRP: rat CGRP with a single Alexa488 dye molecule attached to the lysine24 residue
binding to CGRP receptors [11]: high-affinity
FL-CGRP binding to cells ([11]; COS1 cells co-transfected with CLR-cherry and RAMP1, 48 hours post-transfection, 30 nM FL-CGRP): only observed to bind to cells that were expressing CLR-cherry
FL-CGRP binding to cells ([11]; untransfected cells): No FL-CGRP binding was detected
